# Data from patent US6995018B1, “Complex formed by N-linked glycoproteins (SIBLINGS)and Factor H” (The United States of America as represented by the …, priority 1999, dated 2006).
# Tests used:
# [1] = test system: Murine erythroleukemia (MEL) cells; experiment: Alternate complement mediated cell lysis assay, MEL cells with normal human serum; assay type: cell-based; settings: for protection of MEL cells from complement-mediated lysis (cell viability): 10 μg/mL protein 10 min, normal human serum 1:10, 2 h, trypan blue and MTT; for effect of pretreatment on protective effect of rOPN: pretreatment followed by rOPN 10 μg/mL
# Method: MEL cells were rinsed three times with GVB-MgEGTA buffer, resuspended in GVB-MgEGTA at a density of 5×10^6 cells/mL, and incubated at 37° C. with different concentrations of normal human serum. After 2 hrs, cells were harvested for trypan blue exclusion assay. The thiazolium blue assay was carried out at identical serum dilutions and cell viability was determined by absorbance at 560 nm. Each data point represents the average of three measurements. The error bars represent the standard deviation of the mean (A). MEL cells in GVB-MgEGTA buffer were incubated with 10 μg/mL of either rBSP or rOPN for 10 minutes at 37° C. Normal human serum was then added at a dilution of 1:10 and the cells were returned to 37° C., incubated for 2 hours and cell viability was determined by trypan blue and thiazolyl blue (MTT) reduction assays (B). Data from 3–7 separate experiments, with treatment replicates in triplicate, was combined to yield mean values. Error bars represent the standard error of the mean. N=number of experiments combined.
# MEL cells prepared as in FIG. 8 were treated with normal rBSP (10 μg/mL), rBSP whose RGD sequence had been mutated to KAE ([…]), and either GRGDS (SEQ ID NO: 10) peptide (400 μM) followed by rBSP or an αVβ3 antibody (1:4000) followed by rBSP for 10 minutes prior to the addition of normal human serum. The cells were then incubated for […] after which cell viability determined using the MTT assay (A). A cohort of MEL cells were pretreated with rOPN (10 μg/mL) alone, GRGDS (SEQ ID NO: 10) peptide followed by rOPN, the αVβ3 antibody followed by rOPN, or an anti-CD44 antibody (Chemicon, Co.) followed by rOPN, or hyaluronan (HA) followed by rOPN (B). Cells were then treated with normal human serum and viability assayed as in FIG. 8. […] The data represents the mean and standard error of the mean for three separate experiments. Statistical significance was determined by analysis of variance. Percent cell viability was determined using A560 absorbance values of various conditions and a control where no serum had been added (100% viable). The cross-hatched region represents that range of values observed when normal human serum (1:10) alone was added (maximal cell death).
# The first model system employed was a murine erythroleukemia (MEL) cell line which when incubated with normal human serum can be readily assayed for alternate complement pathway (ACP)-mediated cell lysis (Varnet et al., Curr. Opin. Cell Biol., 8(5):724–730, 1996). Cell survival was measured by both trypan blue dye exclusion and by thiazolyl blue (MTT) reduction by living mitochondria. Titration with dilutions of normal human serum and time courses were carried out to define optimal incubation conditions. At 1:10 dilution, human serum totally lysed the MEL cells as measured by both assay systems (FIG. 8A).
# Murine erytliroleukemia (MEL) cells (a gift of Dr. Marilyn Farquhar, Univ. CA San Diego.) grown in DMEM containing 10% fetal bovine serum and 4 mM glutamine were rinsed three times with gelatin veronal buffer with Mg2^+ and EGTA (GVB-MgEGTA, Sigma, St. Louis, Mo.). Cells were resuspended in GVB-MgEGTA at a density of 5×10^6 cells/mL and incubated at 37° C. with different concentrations of normal human serum diluted in GVB-MgEGTA. After 2 h, cells were harvested for trypan blue exclusion assay by removing a 50 μL aliquot, incubating for 15 minutes in 0.4% trypan blue, and counting viable cells under an inverted microscope. The thiazolium blue assay was carried out at identical serum dilutions by incubating a 50 μL aliquot of the cell suspension in an equal volume of 1 mg/mL thiazolyl blue (MTT) for 45 min. Cell viability was determined spectrophotometrically by absorbance at 560 nm. Cells in GVB-MgEGTA buffer were pre-incubated with 10 μg of either rBSP, rDMP1, or rOPN in 1 mL for 10 minutes at 37° C. […]
# [2] = test system: U-266 myeloma cells; experiment: Alternate complement pathway cell lysis assay with guinea pig serum, U-266; assay type: cell-based, human; settings: U-266, 10 μg/mL, guinea pig serum 1:5, trypan blue and MTT
# Method: (§1) Human cancer cell lines, MCF-7 (A) and U-266 (B) cells were rinsed three time with GVB-MgEGTA buffer and subsequently treated exactly as in the MEL cell complement-mediated cell lysis assay described above except complement active guinea pig serum (GPS) was substituted for human serum. Three different dilutions of GPS were assayed. For cultures pretreated with 10 μg/mL BSP or OPN, the dilution of GPS used was 1:5. Cell viability was determined by both trypan blue exclusion (solid bar) and MTT (open bar) assay. The bars represent the mean values of triplicate samples and the error bars are the standard deviation values.
# (§2) Murine erytliroleukemia (MEL) cells (a gift of Dr. Marilyn Farquhar, Univ. CA San Diego.) grown in DMEM containing 10% fetal bovine serum and 4 mM glutamine were rinsed three times with gelatin veronal buffer with Mg2^+ and EGTA (GVB-MgEGTA, Sigma, St. Louis, Mo.). Cells were resuspended in GVB-MgEGTA at a density of 5×10^6 cells/mL and incubated at 37° C. with different concentrations of normal human serum diluted in GVB-MgEGTA. […] Cell viability was determined spectrophotometrically by absorbance at 560 nm. […] Normal human serum collected for good complement activity was then added at a dilution of 1:10 and the cells returned to 37° C. for 2 hours and cell viability was determined by trypan blue-exclusion and MTT assays. […]
# [3] = test system: MCF-7 breast cancer cells; experiment: Alternate complement pathway cell lysis assay with guinea pig serum, MCF-7; assay type: cell-based, human; settings: MCF-7, 10 μg/mL, guinea pig serum 1:5, trypan blue and MTT
# Method: as §1, §2
# [4] = target: T1, purified human complement Factor H (Homo sapiens, UniProt P08603); experiment: Steady state fluorescence titration of Factor H with SIBLINGS proteins; assay type: binding; settings: fluorescence quenching at 347 nm, excitation 295 nm
# T1 construct: purchased Quidel Corporation (San Diego, Calif.)
# From the text: FIGS. 3A and 3B are graphs which show the result of a titration of Factor H with BSP.
# The salient structural features of Factor H include 20 short consensus repeats (SCRs) that contain four cysteine residues forming two disulfide bonds per repeat. In addition, each SCR contains one conserved tryptophan residue per repeat and Factor H is known to interact with several sialic acid-containing proteins. Therefore, binding interactions between members of the SIBLINGS family of proteins and Factor H can be studied by steady state fluorescence.
# Steady state fluorescence studies were accomplished by titrating purified human complement Factor H with rBSP, rOPN, and rDMP1 followed by excitation at 295 nm and monitoring emission between 300 and 450 nm. The emission profile of Factor H alone yields a peak at 347 nm. The addition of rBSP, rOPN, or rDMP1 in nm increments causes a relative fluorescent intensity quenching. Conversion of the fluorescent intensity titration into a binding curve by determining the fraction of binding sites occupied as the fractional change in fluorescence quenching at 347 nm yields a saturable binding curve. […] Given that normal serum concentration of Factor H is ^˜0.5 mg/mL it is probable that virtually all BSP, OPN, and DMP1 in serum will be complexed with Factor H.
# T1 sequence (P08603 19-1231): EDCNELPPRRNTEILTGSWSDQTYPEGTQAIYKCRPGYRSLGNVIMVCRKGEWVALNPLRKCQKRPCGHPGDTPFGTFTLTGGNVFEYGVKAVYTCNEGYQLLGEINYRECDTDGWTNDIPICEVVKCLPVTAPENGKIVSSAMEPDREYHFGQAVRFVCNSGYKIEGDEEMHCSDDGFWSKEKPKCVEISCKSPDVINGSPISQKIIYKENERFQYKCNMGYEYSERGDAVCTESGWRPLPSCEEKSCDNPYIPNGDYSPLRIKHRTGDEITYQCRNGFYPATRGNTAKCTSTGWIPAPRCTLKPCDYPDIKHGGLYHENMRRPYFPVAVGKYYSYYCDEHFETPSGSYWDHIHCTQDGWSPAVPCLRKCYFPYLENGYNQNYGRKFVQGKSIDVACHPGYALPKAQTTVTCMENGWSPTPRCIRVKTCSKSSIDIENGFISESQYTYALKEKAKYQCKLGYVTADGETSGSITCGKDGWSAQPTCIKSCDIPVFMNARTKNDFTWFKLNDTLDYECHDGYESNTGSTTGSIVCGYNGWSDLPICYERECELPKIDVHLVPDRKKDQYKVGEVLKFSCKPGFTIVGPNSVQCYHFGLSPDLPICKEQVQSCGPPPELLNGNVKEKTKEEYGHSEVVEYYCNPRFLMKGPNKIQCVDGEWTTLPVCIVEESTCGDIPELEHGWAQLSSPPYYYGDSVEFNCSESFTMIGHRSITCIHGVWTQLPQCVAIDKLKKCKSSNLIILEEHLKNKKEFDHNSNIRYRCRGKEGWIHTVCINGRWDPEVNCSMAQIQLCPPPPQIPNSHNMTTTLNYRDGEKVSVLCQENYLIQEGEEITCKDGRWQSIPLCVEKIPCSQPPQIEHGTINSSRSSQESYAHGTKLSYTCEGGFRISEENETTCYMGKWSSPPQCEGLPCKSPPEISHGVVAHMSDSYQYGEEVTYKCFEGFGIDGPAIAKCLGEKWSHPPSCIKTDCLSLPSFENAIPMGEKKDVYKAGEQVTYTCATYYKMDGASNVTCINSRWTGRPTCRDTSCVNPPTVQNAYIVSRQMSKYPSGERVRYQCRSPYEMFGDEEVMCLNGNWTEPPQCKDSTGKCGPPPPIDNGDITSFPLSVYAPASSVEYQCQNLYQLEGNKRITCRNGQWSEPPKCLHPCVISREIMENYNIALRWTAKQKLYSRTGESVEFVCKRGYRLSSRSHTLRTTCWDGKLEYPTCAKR
substance,measurement,setting,value
rBSP-Factor H: pre-formed complex of rBSP and Factor H,protection of MEL cells from complement-mediated lysis (cell viability),[1],abolished the protection
rOPN-Factor H: pre-formed complex of rOPN and Factor H,protection of MEL cells from complement-mediated lysis (cell viability),[1],abolished the protection
GRGDS: synthetic peptide used to compete with SIBLINGS proteins for integrin type binding (Calbiochem-NovaBiochem) [reference compound],effect of pretreatment on protective effect of rBSP,"[1]; MEL cells, GRGDS 400 μM or αVβ3 antibody 1:4000 followed by rBSP 10 μg/mL, MTT",negated the protective effect
same,effect of pretreatment on protective effect of rOPN,"[1]; MEL cells, MTT",reduced cell survival
same,effect of preincubation on DMP1 protection,[1]; cells preincubated before DMP1,diminished but did not abolish
"OPN: osteopontin, SIBLINGS family member; recombinant from adenoviral construct",survival and protection from complement-mediated cell lysis,[2],enhanced survival and protection
same,survival and protection from complement-mediated cell lysis,[3],enhanced survival and protection
same,binding constant with Factor H,[4],in the nM range
same,dose relation of protection of MEL cells from alternate complement pathway-mediated lysis,[1],dose related responses
same,protection of MEL cells from complement-mediated lysis (cell viability),[1],protect
same,protection of MEL cells from complement-mediated lysis (cell viability),[1]; listed as recombinant OPN,conferred protection
hyaluronan [reference compound],effect of pretreatment on protective effect of rOPN,"[1]; MEL cells, MTT",reduced the protective effect
